Results on seven compounds are retold here after patent US20250353891A1 (MEDIMMUNE LIMITED, priority 2022, published 2025).

Each structure is given as a SMILES string. Starred links: 1 amine or outer side, 2 acyl side, 3 side chain; linkers in the order of their positions; H or OH if unused. Non-standard residues stand in square brackets, D forms with d. Residues, ends and D or L forms follow the SMILES beside them. Groups on a side chain read outwards from the residue. *: point of attachment. Heptadecanoyl = CCCCCCCCCCCCCCCCC(=O)*; γGlu = O=C(O)[C@H](CCC(=O)[*:2])N[*:1]; Stearoyl = CCCCCCCCCCCCCCCCCC(=O)*; Palmitoyl = CCCCCCCCCCCCCCCC(=O)*; αMeF = C[C@](N)(Cc1ccccc1)C(=O)O; PEG2 = NCCOCCOCCC(=O)O; Aib = CC(C)(N)C(=O)O

The target in experiment [1] is human GLP-1 receptor (hGLP-1R) (Homo sapiens, UniProt P43220). Briefly: cAMP production (HTRF) in CHO cells expressing hGLP-1R. The format is cell-based. Details: expressed in transfected cells. The following applies: for EC50: Table 6, peptides modified at position 17, cAMP in CHO hGLP-1R cells, geometric mean, read-out: hGLP-1R EC50; for % Relative Potency Ratio: Table 6, % GLP-1R activity relative to GLP-1 / % GlucR activity relative to glucagon. The essentials:
(§1)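 Read-out: HTRF cAMP (anti-cAMP cryptate donor, cAMP-d2 acceptor in conjugate/lysis buffer), converted to % Delta F and fitted by 4-parameter logistic for EC50. Cell densities were 1×10^5 cells/mL (hGLP-1R) or 2×10^5 cells/mL (hGCGR). Stimulation lasted 30 min at room temperature.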

The target in experiment [2] is human glucagon receptor (hGCGR) (Homo sapiens, UniProt P47871). The experiment can be described thus: cAMP production (HTRF) in CHO cells expressing hGCGR. The following applies: Table 6, peptides modified at position 17; cAMP in CHO hGCGR cells; geometric mean; read-out: hGluc-R EC50. The format is cell-based. Details: expressed in transfected cells. The essentials:
as §1

As usually defined, the EC50 is the concentration that produces a half-maximal response.

Chain of human GLP-1 receptor (hGLP-1R) (P43220 24-463): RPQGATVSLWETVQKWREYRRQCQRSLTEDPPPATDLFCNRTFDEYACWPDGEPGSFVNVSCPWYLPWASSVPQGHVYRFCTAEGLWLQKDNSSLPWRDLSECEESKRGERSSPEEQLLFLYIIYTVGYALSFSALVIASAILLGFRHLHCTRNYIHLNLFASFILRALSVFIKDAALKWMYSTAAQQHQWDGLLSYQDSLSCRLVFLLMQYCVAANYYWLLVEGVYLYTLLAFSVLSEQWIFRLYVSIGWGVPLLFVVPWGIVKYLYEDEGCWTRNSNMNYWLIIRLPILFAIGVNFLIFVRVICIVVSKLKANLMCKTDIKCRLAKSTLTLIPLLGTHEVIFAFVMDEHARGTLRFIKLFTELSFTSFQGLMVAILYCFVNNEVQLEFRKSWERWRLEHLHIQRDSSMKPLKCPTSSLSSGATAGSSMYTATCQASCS
Chain of human glucagon receptor (hGCGR) (P47871 26-477): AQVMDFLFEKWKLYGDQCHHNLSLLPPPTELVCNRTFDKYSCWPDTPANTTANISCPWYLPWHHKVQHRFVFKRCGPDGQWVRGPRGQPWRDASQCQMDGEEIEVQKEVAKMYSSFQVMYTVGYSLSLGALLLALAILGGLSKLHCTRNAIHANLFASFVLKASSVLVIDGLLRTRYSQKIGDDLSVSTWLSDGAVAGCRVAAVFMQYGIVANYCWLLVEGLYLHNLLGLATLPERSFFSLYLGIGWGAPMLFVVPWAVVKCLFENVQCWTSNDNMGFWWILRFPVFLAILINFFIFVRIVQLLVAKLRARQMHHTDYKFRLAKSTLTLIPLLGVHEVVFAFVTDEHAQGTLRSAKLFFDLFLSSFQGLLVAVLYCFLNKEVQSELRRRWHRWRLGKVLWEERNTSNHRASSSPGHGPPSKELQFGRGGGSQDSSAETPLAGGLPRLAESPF

As to `CCCCCCCCCCCCCCCCCC(=O)N[C@@H](CCC(=O)N[C@@H](CCC(=O)NCCOCCOCCC(=O)NCCOCCOCCC(=O)NCCCC[C@H](NC(=O)[C@H](CO)NC(=O)[C@H](CC(=O)O)NC(=O)[C@H](CC(C)C)NC(=O)[C@](C)(Cc1ccccc1)NC(=O)[C@H](CCCCN)NC(=O)[C@H](CO)NC(=O)[C@@H](NC(=O)[C@H](CC(=O)O)NC(=O)[C@H](CO)NC(=O)[C@@H](NC(=O)[C@](C)(Cc1ccccc1)NC(=O)[C@H](CO)NC(=O)CNC(=O)[C@H](CCC(N)=O)NC(=O)[C@H](CO)NC(=O)[C@@H](N)Cc1c[nH]cn1)[C@@H](C)O)C(C)C)C(=O)N[C@@H](C)C(=O)N[C@@H](C)C(=O)N[C@@H](CCC(N)=O)C(=O)N[C@@H](CC(=O)O)C(=O)N[C@@](C)(Cc1ccccc1)C(=O)N[C@H](C(=O)N[C@@H](CCC(N)=O)C(=O)NC(C)(C)C(=O)N[C@H](C(=O)N[C@H](C(=O)N[C@@H](CCC(=O)O)C(=O)NCC(=O)NCC(N)=O)C(C)C)C(C)C)C(C)C)C(=O)O)C(=O)O` [Peptide 85] (H-HSQGS[αMeF]TSDVSK[αMeF]LDSK([PEG2-PEG2-γGlu-γGlu-Stearoyl])AAQD[αMeF]VQ[Aib]VVEGG-NH2; N-terminus assumed), in experiment [1], the EC50 stood at 1.04 pM and the “% Relative Potency Ratio” value was 90.9. Moreover, in experiment [2], the EC50 stood at 47.7 pM.

In the case of `CCCCCCCCCCCCCCCCCC(=O)N[C@@H](CCC(=O)N[C@@H](CCC(=O)NCCOCCOCCC(=O)NCCOCCOCCC(=O)NCCCC[C@H](NC(=O)[C@H](CO)NC(=O)[C@H](CC(=O)O)NC(=O)[C@H](CC(C)C)NC(=O)[C@](C)(Cc1ccccc1)NC(=O)[C@H](CCCCN)NC(=O)[C@H](CO)NC(=O)[C@@H](NC(=O)[C@H](CC(=O)O)NC(=O)[C@H](CO)NC(=O)[C@@H](NC(=O)[C@](C)(Cc1ccccc1)NC(=O)[C@H](CO)NC(=O)CNC(=O)[C@H](CCC(N)=O)NC(=O)[C@H](CO)NC(=O)[C@@H](N)Cc1c[nH]cn1)[C@@H](C)O)C(C)C)C(=O)N[C@@H](C)C(=O)N[C@@H](C)C(=O)N[C@@H](CCC(N)=O)C(=O)N[C@@H](CC(=O)O)C(=O)N[C@@](C)(Cc1ccccc1)C(=O)N[C@H](C(=O)N[C@@H](CCC(N)=O)C(=O)NC(C)(C)C(=O)N[C@H](C(=O)N[C@@H](C)C(=O)N[C@@H](CC(N)=O)C(N)=O)[C@@H](C)CC)C(C)C)C(=O)O)C(=O)O` [Peptide 86] (H-HSQGS[αMeF]TSDVSK[αMeF]LDSK([PEG2-PEG2-γGlu-γGlu-Stearoyl])AAQD[αMeF]VQ[Aib]IAN-NH2; N-terminus assumed), the “% Relative Potency Ratio” value in experiment [1] is listed as 16.6. Moreover, the EC50 in experiment [2] was 6.46 pM.

`CCCCCCCCCCCCCCCC(=O)N[C@@H](CCC(=O)N[C@@H](CCC(=O)NCCOCCOCCC(=O)NCCOCCOCCC(=O)NCCCC[C@H](NC(=O)[C@H](CO)NC(=O)[C@H](CC(=O)O)NC(=O)[C@H](CC(C)C)NC(=O)[C@](C)(Cc1ccccc1)NC(=O)[C@H](CCCCN)NC(=O)[C@H](CO)NC(=O)[C@@H](NC(=O)[C@H](CC(=O)O)NC(=O)[C@H](CO)NC(=O)[C@@H](NC(=O)[C@](C)(Cc1ccccc1)NC(=O)[C@H](CO)NC(=O)CNC(=O)[C@H](CCC(N)=O)NC(=O)[C@H](CO)NC(=O)[C@@H](N)Cc1c[nH]cn1)[C@@H](C)O)C(C)C)C(=O)N[C@@H](C)C(=O)N[C@@H](C)C(=O)N[C@@H](CCC(N)=O)C(=O)N[C@@H](CC(=O)O)C(=O)N[C@@](C)(Cc1ccccc1)C(=O)N[C@H](C(=O)N[C@@H](CCC(N)=O)C(=O)NC(C)(C)C(=O)N[C@H](C(=O)N[C@@H](C)C(=O)N[C@@H](CC(N)=O)C(N)=O)[C@@H](C)CC)C(C)C)C(=O)O)C(=O)O` [Peptide 87] (H-HSQGS[αMeF]TSDVSK[αMeF]LDSK([PEG2-PEG2-γGlu-γGlu-Palmitoyl])AAQD[αMeF]VQ[Aib]IAN-NH2; N-terminus assumed): the EC50 in experiment [1] was found to be 1.29 pM; in experiment [2], 8.46 pM. Besides, the “% Relative Potency Ratio” value in experiment [1] is reported as 13.0.

As to `CCCCCCCCCCCCCCCCC(=O)N[C@@H](CCC(=O)N[C@@H](CCC(=O)NCCOCCOCCC(=O)NCCOCCOCCC(=O)NCCCC[C@H](NC(=O)[C@H](CO)NC(=O)[C@H](CC(=O)O)NC(=O)[C@H](CC(C)C)NC(=O)[C@](C)(Cc1ccccc1)NC(=O)[C@H](CCCCN)NC(=O)[C@H](CO)NC(=O)[C@@H](NC(=O)[C@H](CC(=O)O)NC(=O)[C@H](CO)NC(=O)[C@@H](NC(=O)[C@](C)(Cc1ccccc1)NC(=O)[C@H](CO)NC(=O)CNC(=O)[C@H](CCC(N)=O)NC(=O)[C@H](CO)NC(=O)[C@@H](N)Cc1c[nH]cn1)[C@@H](C)O)C(C)C)C(=O)N[C@@H](C)C(=O)N[C@@H](C)C(=O)N[C@@H](CCC(N)=O)C(=O)N[C@@H](CC(=O)O)C(=O)N[C@@](C)(Cc1ccccc1)C(=O)N[C@H](C(=O)N[C@@H](CCC(N)=O)C(=O)NC(C)(C)C(=O)N[C@H](C(=O)N[C@@H](C)C(=O)N[C@@H](CC(N)=O)C(N)=O)[C@@H](C)CC)C(C)C)C(=O)O)C(=O)O` [Peptide 88] (H-HSQGS[αMeF]TSDVSK[αMeF]LDSK([PEG2-PEG2-γGlu-γGlu-Heptadecanoyl])AAQD[αMeF]VQ[Aib]IAN-NH2; N-terminus assumed), in experiment [1], the EC50 was found to be 1.04 pM and the “% Relative Potency Ratio” value is 12.3. For the same compound, the 50% effective concentration (EC50) in experiment [2] was 6.47 pM.

Regarding `CCCCCCCCCCCCCCCC(=O)N[C@@H](CCC(=O)N[C@@H](CCC(=O)NCCOCCOCCC(=O)NCCOCCOCCC(=O)NCCCC[C@H](NC(=O)[C@H](CO)NC(=O)[C@H](CC(=O)O)NC(=O)[C@H](CC(C)C)NC(=O)[C@](C)(Cc1ccccc1)NC(=O)[C@H](CCCCN)NC(=O)[C@H](CO)NC(=O)[C@@H](NC(=O)[C@H](CC(=O)O)NC(=O)[C@H](CO)NC(=O)[C@@H](NC(=O)[C@](C)(Cc1ccccc1)NC(=O)[C@H](CO)NC(=O)CNC(=O)[C@H](CCC(N)=O)NC(=O)[C@H](CO)NC(=O)[C@@H](N)Cc1c[nH]cn1)[C@@H](C)O)C(C)C)C(=O)N[C@@H](C)C(=O)N[C@@H](C)C(=O)N[C@@H](CCC(N)=O)C(=O)N[C@@H](CC(=O)O)C(=O)N[C@@](C)(Cc1ccccc1)C(=O)N[C@H](C(=O)N[C@@H](CCC(=O)O)C(=O)NC(C)(C)C(=O)N[C@H](C(=O)N[C@@H](C)C(=O)N[C@@H](CC(N)=O)C(N)=O)[C@@H](C)CC)C(C)C)C(=O)O)C(=O)O` [Peptide 90] (H-HSQGS[αMeF]TSDVSK[αMeF]LDSK([PEG2-PEG2-γGlu-γGlu-Palmitoyl])AAQD[αMeF]VE[Aib]IAN-NH2; N-terminus assumed), in experiment [1], the EC50 was found to be 1.87 pM and the “% Relative Potency Ratio” value was 7.0. Moreover, the EC50 in experiment [2] turned out to be 6.61 pM.

On to `CCCCCCCCCCCCCCCCCC(=O)N[C@@H](CCC(=O)N[C@@H](CCC(=O)NCCOCCOCCC(=O)NCCOCCOCCC(=O)NCCCC[C@H](NC(=O)[C@H](CO)NC(=O)[C@H](CC(=O)O)NC(=O)[C@H](CC(C)C)NC(=O)C(C)(C)NC(=O)[C@H](CCCCN)NC(=O)[C@H](CO)NC(=O)[C@@H](NC(=O)[C@H](CC(=O)O)NC(=O)[C@H](CO)NC(=O)[C@@H](NC(=O)[C@](C)(Cc1ccccc1)NC(=O)[C@H](CO)NC(=O)CNC(=O)[C@H](CCC(N)=O)NC(=O)[C@H](CO)NC(=O)[C@@H](N)Cc1c[nH]cn1)[C@@H](C)O)C(C)C)C(=O)N[C@@H](C)C(=O)N[C@@H](C)C(=O)N[C@@H](CCC(N)=O)C(=O)N[C@@H](CC(=O)O)C(=O)N[C@@](C)(Cc1ccccc1)C(=O)N[C@H](C(=O)N[C@@H](CCC(N)=O)C(=O)NC(C)(C)C(=O)N[C@@H](CC(C)C)C(=O)N[C@@H](CCC(=O)O)C(=O)N[C@@H](C)C(N)=O)C(C)C)C(=O)O)C(=O)O` [Peptide 92] (H-HSQGS[αMeF]TSDVSK[Aib]LDSK([PEG2-PEG2-γGlu-γGlu-Stearoyl])AAQD[αMeF]VQ[Aib]LEA-NH2; N-terminus assumed), for which the “% Relative Potency Ratio” value in experiment [1] came to 24.1. Besides, in experiment [2], the EC50 is 10.9 pM.

In the case of `CCCCCCCCCCCCCCCCCC(=O)N[C@@H](CCC(=O)N[C@@H](CCC(=O)NCCOCCOCCC(=O)NCCOCCOCCC(=O)NCCCC[C@H](NC(=O)[C@H](CO)NC(=O)[C@H](CC(=O)O)NC(=O)[C@H](CC(C)C)NC(=O)C(C)(C)NC(=O)[C@H](CCCCN)NC(=O)[C@H](CO)NC(=O)[C@@H](NC(=O)[C@H](CC(=O)O)NC(=O)[C@H](CO)NC(=O)[C@@H](NC(=O)[C@](C)(Cc1ccccc1)NC(=O)[C@H](CO)NC(=O)CNC(=O)[C@H](CCC(N)=O)NC(=O)[C@H](CO)NC(=O)[C@@H](N)Cc1c[nH]cn1)[C@@H](C)O)C(C)C)C(=O)N[C@@H](C)C(=O)N[C@@H](C)C(=O)N[C@@H](CCC(N)=O)C(=O)N[C@@H](CC(=O)O)C(=O)N[C@@](C)(Cc1ccccc1)C(=O)N[C@H](C(=O)N[C@@H](CCC(N)=O)C(=O)NC(C)(C)C(=O)N[C@@H](CC(C)C)C(=O)N[C@@H](C)C(=O)N[C@@H](CC(N)=O)C(N)=O)C(C)C)C(=O)O)C(=O)O` [Peptide 93] (H-HSQGS[αMeF]TSDVSK[Aib]LDSK([PEG2-PEG2-γGlu-γGlu-Stearoyl])AAQD[αMeF]VQ[Aib]LAN-NH2; N-terminus assumed), the “% Relative Potency Ratio” value in experiment [1] was 37.4. Moreover, the EC50 in experiment [2] was 8.92 pM.
